# In patent US12522594B2, “2-heteroaryl-3-oxo-2,3-dihydropyridazine-4-carboxamides for the treatment of cancer” (Deutsches Krebsforschungszentrum, priority 2017, dated 2026):
# Assays:
# Type in all cases: cell-based
# AHR [1] = target: T1, AHR (Homo sapiens, UniProt P35869); experiment: In vitro assay 1: antagonism in human cell line (transactivation assay, U87 cells prestimulated with kynurenic acid, DRE firefly luciferase reporter); parameters: host or cells: U87 glioblastoma cells, stably transfected with DRE firefly luciferase and renilla reporter constructs; details: 150 uM kynurenic acid, 20 hours, read-out: Assay 1: AHR-luc Hum Antagonism IC50
# T1 sequence (P35869 11-848): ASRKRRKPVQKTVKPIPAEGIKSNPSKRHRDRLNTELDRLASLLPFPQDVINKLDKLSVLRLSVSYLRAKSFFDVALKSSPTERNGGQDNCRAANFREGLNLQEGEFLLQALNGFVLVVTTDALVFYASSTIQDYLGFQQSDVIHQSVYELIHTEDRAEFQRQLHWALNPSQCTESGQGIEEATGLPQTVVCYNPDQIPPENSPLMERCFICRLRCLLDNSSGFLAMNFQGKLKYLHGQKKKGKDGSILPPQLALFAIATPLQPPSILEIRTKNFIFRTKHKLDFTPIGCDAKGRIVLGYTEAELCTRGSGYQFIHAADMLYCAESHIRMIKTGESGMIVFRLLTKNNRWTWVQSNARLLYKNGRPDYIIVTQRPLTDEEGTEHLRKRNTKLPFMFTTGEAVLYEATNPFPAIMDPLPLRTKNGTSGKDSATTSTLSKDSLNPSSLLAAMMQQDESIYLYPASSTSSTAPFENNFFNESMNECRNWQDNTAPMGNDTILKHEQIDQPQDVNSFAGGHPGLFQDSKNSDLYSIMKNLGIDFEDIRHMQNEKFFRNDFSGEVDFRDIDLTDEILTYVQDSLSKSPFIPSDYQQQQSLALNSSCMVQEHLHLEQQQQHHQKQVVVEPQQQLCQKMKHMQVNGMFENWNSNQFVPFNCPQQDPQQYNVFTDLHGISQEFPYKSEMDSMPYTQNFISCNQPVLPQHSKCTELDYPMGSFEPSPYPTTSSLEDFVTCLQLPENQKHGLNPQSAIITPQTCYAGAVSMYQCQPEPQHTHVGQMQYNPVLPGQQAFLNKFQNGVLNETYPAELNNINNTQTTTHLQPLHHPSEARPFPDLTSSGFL
# Summary of the method: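 Antagonism measured after kynurenic acid prestimulation in U87 cells that express AHR endogenously and stably harbor a firefly luciferase gene under DRE control plus a constitutive renilla construct. Positive and negative controls served for normalization.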
# AHR [2] = target: T1, AHR; experiment: In vitro assay 2: agonism in human cell line (transactivation assay, U87 cells, DRE firefly luciferase reporter); parameters: host or cells: U87 glioblastoma cells, stably transfected with DRE firefly luciferase and renilla reporter constructs; details: no kynurenic acid, 20 hours, read-out: Assay 2: AHR-luc Hum Agonism IC50
# Summary of the method: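 Agonist readout: DRE firefly luciferase, with constitutive renilla reporter, in stably transfected U87 cells expressing AHR endogenously. Normalization used positive control (300 uM kynurenic acid) and negative control.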
# AHR [3] = target: T1, AHR; experiment: In vitro assay 3: AHR-regulated CYP1A1 expression in human cell line (U937, qPCR, KA stimulation); details: U937 cells, 200 uM KA, 6 hours, CYP1A1 expression by qPCR; read-out: Assay 3: Hum CYP1A1 Antagonism IC50
# Summary of the method: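 U937 human monocytic cells were stimulated with 200 uM KA for 6 h, with or without compound at eight concentrations from 1 nM to 3 uM, in duplicate. CYP1A1 mRNA was quantified by Taqman qPCR as fold expression normalised to HPRT. Unstimulated cells served as negative control.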
IC50 (AHR [1]) [nM],IC50 (AHR [2]) [nM],IC50 (AHR [3]) [nM],SMILES
2.57,> 20000,3.03,"Cc1ccc(-c2cc(C(=O)NC(CO)C(C)C)c(=O)n(-c3cnn(C)c3)n2)cc1 (single isomer, unassigned) [Example 2, N-(1-Hydroxy-3-methylbutan-2-yl)-6-(4-methylphenyl)-2-(1-methyl-1H-pyrazol-4-yl)-3-oxo-2,3-dihydropyridazine-4-carboxamide]"
4.55,> 20000,0.15,"Cc1ccc(-c2cc(C(=O)NCC(O)C(F)(F)F)c(=O)n(-c3cnn(C)c3)n2)cc1 (single isomer, unassigned; enantiomer 1) [Example 11, (−)-6-(4-Methylphenyl)-2-(1-methyl-1H-pyrazol-4-yl)-3-oxo-N-(3,3,3-trifluoro-2-hydroxypropyl)-2,3-dihydropyridazine-4-carboxamide, Enantiomer 1]"
10.6,> 20000,22.7,"CC(C)(O)CNC(=O)c1cc(-c2ccc(C(F)(F)F)nc2)nn(-c2cnsc2)c1=O [Example 240, N-(2-Hydroxy-2-methylpropyl)-3-oxo-2-(1,2-thiazol-4-yl)-6-[6-(trifluoromethyl)pyridin-3-yl]-2,3-dihydropyridazine-4-carboxamide]"
57.3,> 20000,22.4,"O=C(N[C@H]1COC[C@@H]1O)c1cc(-c2ccc(Cl)cc2)nn(-c2cccnc2)c1=O (single isomer, unassigned; enantiomer 2) [Example 170, 6-(4-Chlorophenyl)-N-[(trans)-4-hydroxytetrahydrofuran-3-yl]-3-oxo-2-(pyridin-3-yl)-2,3-dihydropyridazine-4-carboxamide, Enantiomer 2]"
27.1,> 20000,32.6,"C[C@@H](CO)NC(=O)c1cc(-c2ccc(Cl)cc2)nn(-c2cncc(F)c2)c1=O [Example 80, 6-(4-Chlorophenyl)-2-(5-fluoropyridin-3-yl)-N-[(2S)-1-hydroxypropan-2-yl]-3-oxo-2,3-dihydropyridazine-4-carboxamide]"
1.48,> 20000,1.36,"Cn1cc(-n2nc(-c3ccc(OC(F)(F)F)cc3)cc(C(=O)N[C@H]3CCCC[C@H]3O)c2=O)cn1 [Example 46, N-[(1S,2R)-2-Hydroxycyclohexyl]-2-(1-methyl-1H-pyrazol-4-yl)-3-oxo-6-[4-(trifluoromethoxy)phenyl]-2,3-dihydropyridazine-4-carboxamide]"
14.1,> 20000,31.3,"Cn1cc(-n2nc(-c3ccc(C(F)(F)F)cc3)cc(C(=O)N[C@@H]3CCC[C@H]3O)c2=O)cn1 [Example 248, N-[(1R,2R)-2-Hydroxycyclo-pentyl]-2-(1-methyl-1H-pyrazol-4-yl)-3-oxo-6-[4-(trifluoromethyl)phenyl]-2,3-dihydropyridazine-4-carboxamide]"
34.3,> 20000,36.2,"C[C@H](CO)NC(=O)c1cc(-c2ccc(C(F)(F)F)cc2)nn(-c2cnn(C)c2)c1=O [Example 38, (−)-N-[(2R)-1-Hydroxypropan-2-yl]-2-(1-methyl-1H-pyrazol-4-yl)-3-oxo-6-[4-(trifluoromethyl)phenyl]-2,3-dihydropyridazine-4-carboxamide]"
4.6,> 20000,5.15,"O=C(N[C@H]1CCCC[C@H]1O)c1cc(-c2ccc(OC(F)(F)F)cc2)nn(-c2cccnc2)c1=O [Example 126, N-[(1S,2R)-2-Hydroxycyclohexyl]-3-oxo-2-(pyridin-3-yl)-6-[4-(trifluoromethoxy)phenyl]-2,3-dihydropyridazine-4-carboxamide]"
16.4,> 20000,40.3,"C[C@H](NC(=O)c1cc(-c2ccc(OC(F)F)cc2)nn(-c2cnn(C)c2)c1=O)C(C)(C)O [Example 309, 6-[4-(Difluoromethoxy)phenyl]-N-[(2S)-3-hydroxy-3-methylbutan-2-yl]-2-(1-methyl-1H-pyrazol-4-yl)-3-oxo-2,3-dihydropyridazine-4-carboxamide]"
37.6,> 20000,34.5,"CC(C)(O)CNC(=O)c1cc(-c2ccc(Cl)cc2)nn(-c2cncc(F)c2)c1=O [Example 82, 6-(4-Chlorophenyl)-2-(5-fluoropyridin-3-yl)-N-(2-hydroxy-2-methylpropyl)-3-oxo-2,3-dihydropyridazine-4-carboxamide]"
35.5,> 20000,22.3,"C[C@H](NC(=O)c1cc(-c2ccc(C(F)F)cc2)nn(-c2cccnc2)c1=O)C(C)(C)O [Example 319, 6-[4-(Difluoromethyl)phenyl]-N-[(2S)-3-hydroxy-3-methylbutan-2-yl]-3-oxo-2-(pyridin-3-yl)-2,3-dihydropyridazine-4-carboxamide]"
21.9,> 20000,33.7,"C[C@@H](CO)NC(=O)c1cc(-c2ccc(OC(F)F)cc2)nn(-c2cnn(C)c2)c1=O [Example 308, 6-[4-(Difluoromethoxy)phenyl]-N-[(2S)-1-hydroxypropan-2-yl]-2-(1-methyl-1H-pyrazol-4-yl)-3-oxo-2,3-dihydropyridazine-4-carboxamide]"
35.6,> 20000,21.9,"Cn1cc(-n2nc(-c3ccc(Cl)cc3)cc(C(=O)NCC(C)(C)O)c2=O)cn1 [Example 32, 6-(4-Chlorophenyl)-N-(2-hydroxy-2-methylpropyl)-2-(1-methyl-1H-pyrazol-4-yl)-3-oxo-2,3-dihydropyridazine-4-carboxamide]"
1.46,> 20000,2.02,"Cn1cc(-n2nc(-c3ccc(C(F)(F)F)cc3)cc(C(=O)N[C@H]3CCC[C@@H]3O)c2=O)cn1 [Example 210, N-[(1S,2S)-2-Hydroxycyclopentyl]-2-(1-methyl-1H-pyrazol-4-yl)-3-oxo-6-[4-(trifluoromethyl)phenyl]-2,3-dihydropyridazine-4-carboxamide]"
24.2,> 20000,21.7,"C[C@@H](CO)NC(=O)c1cc(-c2ccc(OC(F)(F)F)cc2)nn(-c2cccnc2)c1=O [Example 153, N-[(2S)-1-Hydroxypropan-2-yl]-3-oxo-2-(pyridin-3-yl)-6-[4-(trifluoromethoxy)phenyl]-2,3-dihydropyridazine-4-carboxamide]"
7.89,> 20000,9.93,"Cn1cc(-n2nc(-c3ccc(C(F)(F)F)cc3)cc(C(=O)N[C@@H]3COC[C@@H]3O)c2=O)cn1 (single isomer, unassigned) [Example 231, (−)-N-cis-4-Hydroxytetra-hydrofuran-3-yl-2-(1-methyl-1H-pyrazol-4-yl)-3-oxo-6-[4-(trifluoromethyl)phenyl]-2,3-dihydropyridazine-4-carboxamide]"
45.9,> 20000,43.3,"CC(C)(O)CNC(=O)c1cc(-c2ccc(OC(F)(F)F)cc2)nn(-c2cccnc2)c1=O [Example 292, N-(2-Hydroxy-2-methylpropyl)-3-oxo-2-(pyridin-3-yl)-6-[4-(trifluoromethoxy)phenyl]-2,3-dihydropyridazine-4-carboxamide]"
1.88,> 20000,1.69,"O=C(N[C@H]1CCC[C@@H]1O)c1cc(-c2ccc(C(F)(F)F)cc2)nn(-c2cccnc2)c1=O [Example 102, N-[(1S,2S)-2-Hydroxycyclopentyl]-3-oxo-2-(pyridin-3-yl)-6-[4-(trifluoromethyl)phenyl]-2,3-dihydropyridazine-4-carboxamide]"
2.44,> 20000,7.01,"O=C(N[C@@H]1CC[C@@H]1O)c1cc(-c2ccc(C(F)(F)F)cc2)nn(-c2cccnc2)c1=O (single isomer, unassigned) [Example 217, (+)-N-cis-2- Hydroxycyclobutyl-3-oxo-2-(pyridin-3-yl)-6-[4-(trifluoromethyl)phenyl]-2,3-dihydropyridazine-4-carboxamide]"
